Experimental data as given in patent publication US20050197364A1, “Amide compounds as ion channel ligands and uses thereof” (priority 2003, published 2005).
pIC50: −log10 of the molar value.

Columns and labels:
VR1 receptor [1] = assay: High throughput calcium imaging assay (Fura2, Flex Station) of VR1 antagonists, pH 5.1 stimulus; type: cell-based; conditions: 1 uM compound; inhibition of calcium ion influx induced by capsaicin stimulation
Procedure: Therefore the functional activity of compounds at the VR1 receptor may be determined by measuring changes in intracellular calcium levels in 293 cells expressing capsaicin-insensitive VR1 receptor variants. A dual wavelength ratiometric dye, Fura2, was used as an indicator of relative levels of calcium ions in a 96 well format using a bench top scanning fluorometer with integrated fluidics and temperature control (Flex Station, Molecular Devices).
293 cells were grown on PDL coated 96-well black-walled plates, in the presence of a DMEM medium containing 5% Penstrep, 5% Glutamax, 200 ug/mL Hygromycin, 5 μg/mL Blasticide and 10% heat inactivated FBS. Prior to assay, the cells were loaded with 5 μg/mL Fura2 in normal saline solution at 37° C. for 40 minutes. Cells were then washed with normal saline to remove the dye.
The assay consists of two stages; a pre-treatment phase followed by a treatment phase.
50 μl of a compound solution was added to the cells (Pre-treatment). Immediately following, 50 μl of the test compound in a saline solution at pH 5.1 was added. Fura2 was excited at 340 and 380 nM to indicate relative calcium concentration. Changes in wavelength measurements were made throughout the course of the experiment in 4 second intervals over a period of 3 minutes. Responses were measured as peak fluorescence ratio after test compound addition minus baseline fluorescence ratio prior to pre-treatment and were calculated using SoftMaxPro softwareData were expressed as percentage inhibition calculated using Excel as follows: [formula]

VR1 receptor [2] = target: T1, VR1 receptor (Rattus norvegicus, UniProt O35433); assay: Whole-cell patch clamp electrophysiology, capsaicin induced current in DRG neurons; type: cell-based
T1 construct: Dorsal root ganglion (DRG) neurons were recovered from either neonatal or adult rats; endogenous in cells; host or cells: primary rat dorsal root ganglion neurons
Procedure: Dorsal root ganglion (DRG) neurons were recovered from either neonatal or adult rats and plated onto poly-D-lysine coated glass coverslips. The plated neurons were transferred into a chamber to allow drug solutions to be added to the cells using a computer-controlled solenoid-valve based perfusion system. The cells were imaged using standard DIC optics. Cells were patched using finely-pulled glass electrodes. Voltage-clamp electrophysiology experiments were carried out using an Axon Instruments Multiclamp amplified controlled by pCLAMP8 software.
The cells were placed into a whole-cell voltage clamp and help at a voltage of −80 mV while monitoring the membrane current in gap-free recording mode. 500 nM capsaicin was added for 30 seconds as a control. Test compounds at various concentrations at ranging from (10-1000 nM) were added to the cells for 1 minute prior to a 30 second capsaicin application. Differences between control experiments and drug positive capsaicin experiments were used to determine the efficacy of each test compound. All compounds that inhibited capsaicin induced current greater than 50% were considered positives.

thermal hyperalgesia = assay: Thermal hyperalgesia (carrageenan, latency of paw withdrawal); type: in vivo, rat; conditions: rats, 30 mg/kg, two hours after dosing, FIG. 6
Procedure: Sprague-Dawley male rats obtained from Charles River, San Diego, Calif. were purchased at 150-175 g, and held for at least one week before testing. Pain was induced by injecting 100 μl of 2% carrageenan in 0.9% saline sub-Q into the right ventral hindpaw while the animals were under isofluorane anesthesia. Animals were then dosed one hour after with different concentrations of Compound 18 (3, 10, and 30 mg/kg). Two hours later, after acclimatizing in testing chambers for 20-30 minutes, animals were tested on both hindpaws for latency of paw withdrawal using a thermal testing apparatus. 2-3 trials were conducted with 10 minutes between trials. […] The figure depicts the time in seconds until animals withdraw from thermal stimulation at baseline and two hours after administration of delivery vehicle, control compound, and three concentrations of Compound 18.

[3] = Plasma protein binding by equilibrium dialysis, human plasma; type: in vitro ADME; conditions: human plasma in sodium citrate, pH 7.4, 37° C., read-out: human plasma protein binding (% Bound)
Procedure: Membranes from Harvard/Amika with a molecular weight cutoff of 5,000 were rinsed with dH2O then placed in pH 7.4 PBS supplied by Gibco. The membranes were allowed to soak for 1 hour. A stock of the test article was pooled with Warfarin, Atropine at 2 mM in DMSO. The test article was then dosed into human plasma in sodium citrate, Rat Plasma, and Mouse Plasma to a final 10 μM concentration (0.5% DMSO v/v). The pre-soaked membranes were then placed into dialysis chambers. 500 μL of PBS was added to one side of the chamber, and 500 μL of the Matrix containing the test article was added to the other side of the chamber.
The chambers were then placed into an enclosed, heated rocker, which was pre-warmed to 37° C. and allowed to reach equilibrium for at least 22 hours. After 22 hours both sides were sampled. 100 μL of the donor side was added to 500 μL of PBS. 100 μL of the PBS side was added to 20 μL of fresh matrix. Samples then were crashed with 1:1 Acetonitrile and centrifuged at 10,000 RPM for 10 minutes. […]
Standards were prepared in a 1:5 plasma:PBS mixture at 5, 1.5, 0.5, 0.15, 0.05, 0.015 and 0.005 μM concentrations. […] Protein binding values were calculated as follows: % Bound=[(Concentration in Donor−Concentration in Receiver)/(Concentration in Donor)]×100. % Recovery=[(Concentration in donor+Concentration in Receiver)]/(Concentration in Normal Initial)]×100

2C9 = 2C9 (Homo sapiens, UniProt P11712); assay: Cytochrome p450 inhibition assessment, 2C9; type: in vitro ADME; conditions: concentration range tested, upper 100 μM
Procedure: (§1) The ability of test compounds to inhibit five major human cytochrome p450 isozymes was evaluated. Cytochrome p450 inhibition assays were performed on 96-well microtiter assay plates according to the protocols described in Gentest P450 inhibition instruction manuals. The assays were performed in duplicate at 8 concentrations with the upper concentration of 100 μM followed by a 1:3 serial dilution. Reactions were initiated by the addition of 100 μL of enzyme/substrate mix to 100 μL of cofactor/serial dilution mix, and terminated by addition of 75 μL of a 4:1 acentonitrile: 0.5 M Tris base solution or by 2N NaOH for CYP3A4/DBF. Fluorescence was measured using a fluorescence plate reader (FLUOstar model 403, BMG Lab Technologies, Durham, N.C.). For reactions with inhibition greater than 50%, IC50 values were determined by fitting the data to the Hill equation using software GraphPad Prism (Version 4.02, GraphPad Software, San Diego, Calif.).

CYP1A2 = target: T2, CYP1A2 (Homo sapiens, UniProt P05177); assay: Cytochrome p450 inhibition assessment, CYP1A2; type: in vitro ADME; conditions: estimated
T2 sequence (P05177 1-516): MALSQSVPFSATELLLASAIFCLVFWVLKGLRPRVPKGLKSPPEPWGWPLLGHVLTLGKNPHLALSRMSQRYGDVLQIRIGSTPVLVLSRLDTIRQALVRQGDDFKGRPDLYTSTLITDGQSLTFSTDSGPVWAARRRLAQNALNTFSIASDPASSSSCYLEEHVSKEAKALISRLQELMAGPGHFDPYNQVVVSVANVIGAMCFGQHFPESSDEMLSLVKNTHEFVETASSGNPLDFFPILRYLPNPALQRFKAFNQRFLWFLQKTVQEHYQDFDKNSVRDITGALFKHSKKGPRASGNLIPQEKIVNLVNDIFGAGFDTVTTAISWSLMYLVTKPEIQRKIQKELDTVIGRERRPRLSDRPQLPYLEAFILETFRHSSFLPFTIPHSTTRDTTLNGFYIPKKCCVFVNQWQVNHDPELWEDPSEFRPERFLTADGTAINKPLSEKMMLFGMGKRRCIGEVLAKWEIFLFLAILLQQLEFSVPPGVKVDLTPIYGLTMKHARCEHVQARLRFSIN
Procedure: as §1

T1 sequence (O35433 whole entry): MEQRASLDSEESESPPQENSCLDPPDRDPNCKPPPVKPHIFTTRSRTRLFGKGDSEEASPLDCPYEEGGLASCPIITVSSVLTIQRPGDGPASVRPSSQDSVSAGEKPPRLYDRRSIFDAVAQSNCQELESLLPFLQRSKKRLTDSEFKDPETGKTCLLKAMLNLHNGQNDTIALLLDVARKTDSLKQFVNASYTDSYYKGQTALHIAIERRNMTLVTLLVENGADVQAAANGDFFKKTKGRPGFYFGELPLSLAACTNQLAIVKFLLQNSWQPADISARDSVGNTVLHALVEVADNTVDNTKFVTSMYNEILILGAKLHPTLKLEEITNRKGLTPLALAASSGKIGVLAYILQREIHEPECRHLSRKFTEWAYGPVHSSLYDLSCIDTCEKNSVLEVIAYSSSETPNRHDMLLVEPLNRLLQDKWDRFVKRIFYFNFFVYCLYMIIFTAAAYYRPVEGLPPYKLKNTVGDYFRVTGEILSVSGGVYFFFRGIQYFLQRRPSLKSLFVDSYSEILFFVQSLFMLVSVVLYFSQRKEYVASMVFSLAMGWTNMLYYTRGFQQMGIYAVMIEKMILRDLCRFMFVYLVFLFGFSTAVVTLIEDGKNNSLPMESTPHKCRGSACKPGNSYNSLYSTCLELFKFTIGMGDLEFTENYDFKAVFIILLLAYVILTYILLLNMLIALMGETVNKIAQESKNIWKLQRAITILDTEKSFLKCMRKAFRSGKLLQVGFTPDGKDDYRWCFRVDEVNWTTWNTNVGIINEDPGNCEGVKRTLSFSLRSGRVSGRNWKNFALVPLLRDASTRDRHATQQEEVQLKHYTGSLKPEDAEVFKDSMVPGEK
2C9, sequence (P11712 whole entry): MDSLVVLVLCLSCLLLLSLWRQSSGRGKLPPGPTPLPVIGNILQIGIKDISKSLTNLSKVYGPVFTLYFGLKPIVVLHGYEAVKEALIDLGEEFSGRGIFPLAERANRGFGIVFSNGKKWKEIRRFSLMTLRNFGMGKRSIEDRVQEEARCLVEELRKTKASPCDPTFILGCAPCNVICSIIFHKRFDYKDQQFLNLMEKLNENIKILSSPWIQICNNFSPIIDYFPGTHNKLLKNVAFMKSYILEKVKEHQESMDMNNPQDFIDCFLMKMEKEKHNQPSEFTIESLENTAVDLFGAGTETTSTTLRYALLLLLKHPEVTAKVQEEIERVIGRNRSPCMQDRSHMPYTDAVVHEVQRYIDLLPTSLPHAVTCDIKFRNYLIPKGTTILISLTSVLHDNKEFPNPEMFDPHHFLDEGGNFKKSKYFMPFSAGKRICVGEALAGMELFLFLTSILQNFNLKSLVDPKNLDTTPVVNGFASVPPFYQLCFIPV

dose response of inhibiting a capsaicin induced calcium ion influx (FIG. 3) (VR1 receptor [2]; 50 nM, 100 nM and 250 nM): increasing effectiveness
inhibition at 0.1 µM (VR1 receptor [2]; DRG neuron, 100 nM compound, treatment time 20 seconds, 500 nM capsaicin, rat DRG neurons, -80 mV): < 75%
fraction unbound at 22 h, 10 µM [3]: < 0.002
inhibition of 2C9 activity (2C9): did not significantly inhibit
pIC50 (CYP1A2): 4.01
Compound: O=C(Nc1ccc(C(F)(F)F)cc1)c1ccc(-c2ncccc2Cl)cc1 [Compound 18, 4-(3-Chloropyridin-2-yl)-N-(4-trifluoromethyl-phenyl)benzamide]
% Inhibition @ 1 uM (VR1 receptor [1]): + + + + (compound exhibited 75% or greater inhibition of calcium ion influx induced by capsaicin stimulation)
latency of paw withdrawal (reversal of thermal hyperalgesia) (thermal hyperalgesia): significantly increased
